From patent US20120309734A1, “COMBRETASTATIN DERIVATIVES AND USES THEREFOR” (priority 2009, published 2012)

Key:
[1] = system: HOP-92; assay: NCI60 cell line screen; details: Homo sapiens
[2] = system: KM12; assay: NCI60 cell line screen; details: Homo sapiens
[3] = system: ACHN; assay: NCI60 cell line screen; details: Homo sapiens
[4] = system: OVCAR-5; assay: NCI60 cell line screen; details: Homo sapiens
[5] = system: A549/ATCC; assay: NCI60 cell line screen; details: Homo sapiens
[6] = system: HCT-15; assay: NCI60 cell line screen; details: Homo sapiens
[7] = system: T-47D; assay: NCI60 cell line screen; details: Homo sapiens, T47D
[8] = system: UACC-257; assay: NCI60 cell line screen; details: Homo sapiens
[9] = system: SNB-19; assay: NCI60 cell line screen; details: Homo sapiens
[10] = system: CCRF-CEM; assay: NCI60 cell line screen; details: Homo sapiens
[11] = system: SN12C; assay: NCI60 cell line screen; details: Homo sapiens
[12] = system: UO-31; assay: NCI60 cell line screen; details: Homo sapiens
[13] = system: RPMI-8226; assay: NCI60 cell line screen; details: Homo sapiens
[14] = system: SF-539; assay: NCI60 cell line screen; details: Homo sapiens
[15] = system: MCF-7; assay: NCI60 cell line screen; details: Homo sapiens, MCF7
[16] = system: NCI-H23; assay: NCI60 cell line screen; details: Homo sapiens
[17] = system: IGROV1; assay: NCI60 cell line screen; details: Homo sapiens, IGROV-1
[18] = system: SF-295; assay: NCI60 cell line screen; details: Homo sapiens
[19] = system: NCI-H460; assay: NCI60 cell line screen; details: Homo sapiens
[20] = system: NCI-H552; assay: NCI60 cell line screen
[21] = system: 786-0; assay: NCI60 cell line screen; details: Homo sapiens
[22] = system: SF-268; assay: NCI60 cell line screen; details: Homo sapiens
[23] = system: SK-MEL-2; assay: NCI60 cell line screen; details: Homo sapiens
[24] = system: HCT-116; assay: NCI60 cell line screen; details: Homo sapiens
[25] = system: SW-620; assay: NCI60 cell line screen; details: Homo sapiens
[26] = system: A498; assay: NCI60 cell line screen; details: Homo sapiens
[27] = system: OVCAR-8; assay: NCI60 cell line screen; details: Homo sapiens
[28] = system: BT-549; assay: NCI60 cell line screen; details: Homo sapiens
[29] = system: MDA-MB-435; assay: NCI60 cell line screen; details: Homo sapiens
[30] = system: MDA-MB-468; assay: NCI60 cell line screen; details: Homo sapiens
[31] = system: EKVX; assay: NCI60 cell line screen; details: Homo sapiens
[32] = system: HCT-2998; assay: NCI60 cell line screen
[33] = system: MDA-MB-231/ATCC; assay: NCI60 cell line screen; details: Homo sapiens
[34] = system: MCF-7 breast cancer cell line; assay: Antiproliferation study, MTT cell viability assay; type: cell-based; details: Homo sapiens, MCF7, 72 h, antiproliferative activity, MTT, 72 h; read-out: IC50 (μM) MCF-7 cell line
In short: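 Cells seeded at 2.5×10^4 cells/ml and grown 24 h at 37 °C before compound treatment; vehicle 1% v/v ethanol. MTT at 1 mg/mL final for 2 h at 37 °C, then DMSO solubilisation and absorbance read. Viability expressed as % of untreated control, in triplicate, with compounds tested as free bases.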

[35] = system: CAKI-1; assay: NCI60 cell line screen; details: Homo sapiens
[36] = system: HL-60(TB); assay: NCI60 cell line screen; details: Homo sapiens

For `COc1ccc(C2C(c3ccccc3)C(=O)N2c2cc(OC)c(OC)c(OC)c2)cc1O` (stereo not drawn) [Compound 4, 4-(3-Hydroxy-4-methoxyphenyl)-3-phenyl-1-(3,4,5-trimethoxyphenyl)-azetidin-2-one], the GI50 [1] was 5.15 µM, the GI50 [2] was < 0.01 µM and the GI50 [3] was < 0.01 µM. The GI50 [4] was 0.038 µM, the GI50 [5] was < 0.01 µM and the GI50 [6] was < 0.01 µM. The GI50 [7] was 31.2 µM, the GI50 [8] was 22.4 µM and the GI50 [9] was 0.025 µM. The GI50 [10] was < 0.01 µM, the GI50 [11] was < 0.01 µM and the GI50 [12] was 0.032 µM. For the same molecule, the GI50 [13] was < 0.01 µM, the GI50 [14] was < 0.01 µM and the GI50 [15] was < 0.01 µM. For the same molecule, the GI50 [16] was < 0.01 µM, the GI50 [17] was < 0.01 µM and the GI50 [18] was < 0.01 µM. For the same molecule, the GI50 [19] was < 0.01 µM, the GI50 [20] was 5.15 µM and the GI50 [21] was 0.034 µM. For the same molecule, the GI50 [22] was < 0.01 µM, the GI50 [23] was 0.014 µM and the melting point was 110 °C. The GI50 [24] was < 0.01 µM, the GI50 [25] was < 0.01 µM and the GI50 [26] was < 0.01 µM. For the same molecule, the GI50 [27] was 0.01 µM, the GI50 [28] was < 0.01 µM and the GI50 [29] was < 0.01 µM. For the same molecule, the GI50 [30] was < 0.01 µM, the GI50 [31] was < 0.01 µM and the GI50 [32] was 0.035 µM. For the same molecule, the GI50 [33] was < 0.01 µM, the IC50 [34] was 0.0096 µM and the GI50 [35] was < 0.01 µM. The GI50 [36] was < 0.01 µM.
Work on `COc1ccc(C2C(c3ccccc3)C(=O)N2c2cc(OC)c(OC)c(OC)c2)cc1` (stereo not drawn) [Compound 8, 4-(4-Methoxy-phenyl)-3-phenyl-1-(3,4,5-trimethoxy-phenyl)-azetidin-2-one] yielded a GI50 [1] of 22.7 µM, a GI50 [2] of 0.0427 µM and a GI50 [3] of 0.138 µM. The GI50 [4] was 0.668 µM, the GI50 [5] was 0.238 µM and the GI50 [6] was 0.17 µM. The GI50 [7] was > 100 µM, the GI50 [8] was 27.9 µM and the GI50 [9] was 0.28 µM. For the same molecule, the GI50 [10] was 0.0372 µM, the GI50 [11] was 0.312 µM and the GI50 [12] was 0.396 µM. The GI50 [13] was 0.0293 µM, the GI50 [14] was 0.033 µM and the GI50 [15] was 0.0351 µM. The GI50 [16] was 0.427 µM, the GI50 [17] was 0.285 µM and the GI50 [18] was 0.035 µM. It also gave a GI50 [19] of 0.198 µM, a GI50 [20] of 0.0966 µM and a GI50 [21] of 0.432 µM. For the same molecule, the GI50 [22] was 0.354 µM, the GI50 [23] was > 100 µM and the melting point was 108 °C. The GI50 [24] was 0.0398 µM, the GI50 [25] was 0.0487 µM and the GI50 [26] was 0.0375 µM. The GI50 [27] was 0.125 µM, the GI50 [28] was 0.117 µM and the GI50 [29] was 0.0239 µM. The GI50 [30] was 0.0684 µM, the GI50 [31] was 0.352 µM and the GI50 [32] was 0.349 µM. It also gave a GI50 [33] of 0.2 µM, an IC50 [34] of 0.034 µM and a GI50 [35] of 0.0848 µM. The GI50 [36] was 0.0162 µM.
For `COc1ccc(C2C(c3cccs3)C(=O)N2c2cc(OC)c(OC)c(OC)c2)cc1` (stereo not drawn) [Compound 12, 4-(4-Methoxyphenyl)-3-thiophen-2-yl-1-(3,4,5-trimethoxyphenyl)-azetidin-2-one], the GI50 [1] was 0.051 µM, the GI50 [2] was < 0.01 µM and the GI50 [3] was < 0.01 µM. For the same molecule, the GI50 [4] was 0.051 µM, the GI50 [5] was 0.023 µM and the GI50 [6] was 0.026 µM. The GI50 [7] was > 1000 µM, the GI50 [8] was 67.8 µM and the GI50 [9] was 0.043 µM. For the same molecule, the GI50 [10] was < 0.01 µM, the GI50 [11] was < 0.01 µM and the GI50 [12] was 0.038 µM. For the same molecule, the GI50 [13] was < 0.01 µM, the GI50 [14] was < 0.01 µM and the GI50 [15] was < 0.01 µM. The GI50 [16] was 0.036 µM, the GI50 [17] was 0.02 µM and the GI50 [18] was < 0.01 µM. The GI50 [19] was 0.03 µM, the GI50 [20] was < 0.01 µM and the GI50 [21] was 0.031 µM. The GI50 [22] was 0.028 µM, the GI50 [23] was 7.79 µM and the melting point was 115 °C. For the same molecule, the GI50 [24] was < 0.01 µM, the GI50 [25] was 0.01 µM and the GI50 [26] was < 0.01 µM. For the same molecule, the GI50 [27] was < 0.01 µM, the GI50 [28] was < 0.01 µM and the GI50 [29] was < 0.01 µM. The GI50 [30] was < 0.01 µM, the GI50 [31] was 0.034 µM and the GI50 [32] was 0.03 µM. It also gave a GI50 [33] of 0.01 µM, an IC50 [34] of 0.064 µM and a GI50 [35] of 0.016 µM. For the same molecule, the GI50 [36] was < 0.01 µM.
